In one assay the test system is bromodomain. Nature of the assay: Bromodomain cell assays of Example 40 (at least one of them). The format is cell-based. The conditions noted are these: in at least one of the bromodomain cell assays described in Example 40. Put shortly: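 Growth inhibition: 3000 MV-4-11, MOLM-13, MM.1S or neuroblastoma cells/well got an 8-point 1:3 series from 10 μM top (0.2% DMSO) for 72 h, then CellTiter-Glo luminescence. Myc reporter: MV-4-11 with E-box firefly luciferase, 24 h exposure, One-Glo luminescence plus CellTiter-Fluo cell count. pIC50 from four-parameter fit.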

Another assay has as its system MV-4-11. Nature of the assay: Oncology cell growth assay MV-4-11 (CellTiter Glo, 72 hours). The conditions noted are these: Homo sapiens, MV4-11, 72 h; MV-4-11 cell growth inhibitory activity, 3d. The class given is cell-based. Put shortly: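 Growth read by CellTiter Glo luminescence after 72 h compound exposure of MV-4-11 AML cells (MLL-AF4), using 8-point 1:3 series to 10 μM final in 0.2% DMSO. Data normalized to DMSO wells, four-parameter fit yields pIC50.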
In general terms: ATP-based viability assays read luminescence as a measure of living cells.

The record followed here is patent US10501460B2, “Heterocyclic compounds and uses thereof” (Plexxikon Inc., priority 2013, dated 2019).

Bounds are passed on as bounds.

`Cc1noc(C)c1-c1cnc2c(-c3cnn(C)c3)cn(Cc3ccccc3C(F)(F)F)c2c1` [P-0188, 3,5-dimethyl-4-[3-(1-methylpyrazol-4-yl)-1-[[2-(trifluoromethyl)phenyl]methyl]pyrrolo[3,2-b]pyridin-6-yl]isoxazole]: the values for the IC50 with bromodomain and with MV-4-11 were less than 10 µM and not above 1 µM, respectively.
On the same counts, the results for `Cc1noc(C)c1-c1cnc2c(-c3cnn(C)c3)cn(Cc3c(Cl)cccc3Cl)c2c1` [P-0189, 4-[1-[(2,6-dichlorophenyl)methyl]-3-(1-methylpyrazol-4-yl)pyrrolo[3,2-b]pyridin-6-yl]-3,5-dimethyl-isoxazole] are less than 10 µM and not above 1 µM.
On the same counts, the results for `Cc1noc(C)c1-c1cnc2c(-c3cnn(C)c3)cn(Cc3cc(F)ccc3Cl)c2c1` [P-0190, 4-[1-[(2-chloro-5-fluoro-phenyl)methyl]-3-(1-methylpyrazol-4-yl)pyrrolo[3,2-b]pyridin-6-yl]-3,5-dimethyl-isoxazole] are less than 10 µM and not above 1 µM.
On the same counts, the results for `Cc1noc(C)c1-c1cnc2c(-c3cnn(C)c3)cn(C(CO)c3ccccc3)c2c1` (stereo not drawn) [P-0192, 2-[6-(3,5-dimethylisoxazol-4-yl)-3-(1-methylpyrazol-4-yl)pyrrolo[3,2-b]pyridin-1-yl]-2-phenyl-ethanol] are less than 10 µM and not above 1 µM.
Turning to `Cc1noc(C)c1-c1cnc2c(-c3cnn(C)c3)cn(Cc3ccccc3Cl)c2c1` [P-0193, 4-[1-[(2-chlorophenyl)methyl]-3-(1-methylpyrazol-4-yl)pyrrolo[3,2-b]pyridin-6-yl]-3,5-dimethyl-isoxazole], the IC50 in the assay with bromodomain was less than 10 µM; with MV-4-11, not above 1 µM.
For `Cc1noc(C)c1-c1cnc2c(-c3cnn(C)c3)cn(Cc3ccccc3OC(F)(F)F)c2c1` [P-0194, 3,5-dimethyl-4-[3-(1-methylpyrazol-4-yl)-1-[[2-(trifluoromethoxy)phenyl]methyl]pyrrolo[3,2-b]pyridin-6-yl]isoxazole] the same measures were less than 10 µM and not above 1 µM.
For `Cc1noc(C)c1-c1cnc2c(-c3cnn(C)c3)cn(Cc3cccnc3)c2c1` [P-0195, 3,5-dimethyl-4-[3-(1-methylpyrazol-4-yl)-1-(3-pyridylmethyl)pyrrolo[3,2-b]pyridin-6-yl]isoxazole] the same measures were less than 10 µM and not above 1 µM.
On the same counts, the results for `Cc1noc(C)c1-c1cnc2ccn(C(CC#N)C3CCCC3)c2c1` (stereo not drawn) [P-0196, 3-cyclopentyl-3-[6-(3,5-dimethylisoxazol-4-yl)pyrrolo[3,2-b]pyridin-1-yl]propanenitrile] are less than 10 µM and not above 1 µM.
For `Cc1noc(C)c1-c1cnc2c(-c3cnn(C)c3)cn(C(CC#N)C3CCCC3)c2c1` (stereo not drawn) [P-0197, 3-cyclopentyl-3-[6-(3,5-dimethylisoxazol-4-yl)-3-(1-methylpyrazol-4-yl)pyrrolo[3,2-b]pyridin-1-yl]propanenitrile], the IC50 in the assay on bromodomain is less than 10 µM; in the assay on MV-4-11, not above 1 µM.
For `Cc1noc(C)c1-c1cnc2c(-c3cnn(C)c3)cn(Cc3ccccn3)c2c1` [P-0198, 3,5-dimethyl-4-[3-(1-methylpyrazol-4-yl)-1-(2-pyridylmethyl)pyrrolo[3,2-b]pyridin-6-yl]isoxazole] the same measures were less than 10 µM and not above 1 µM.
On the same counts, the results for `Cc1noc(C)c1-c1cnc2c(-c3cn[nH]c3)cn(C(C)c3ccccc3)c2c1` (stereo not drawn) [P-0199, 3,5-dimethyl-4-[1-(1-phenylethyl)-3-(1H-pyrazol-4-yl)pyrrolo[3,2-b]pyridin-6-yl]isoxazole] are less than 10 µM and not above 1 µM.
`CCn1cc(-c2cn(C(C)c3ccccc3)c3cc(-c4c(C)noc4C)cnc23)cn1` (stereo not drawn) [P-0200, 4-[3-(1-ethylpyrazol-4-yl)-1-(1-phenylethyl)pyrrolo[3,2-b]pyridin-6-yl]-3,5-dimethyl-isoxazole]: the figures for the IC50 in the assay with bromodomain and in the assay on MV-4-11 were less than 10 µM and not above 1 µM, respectively.

As usually defined, the IC50 is the midpoint of a concentration-inhibition curve. A higher IC50 goes with lower potency.
